Test results as given in patent publication US20250376483A1, “PRODRUGS OF PAN-KRAS INHIBITORS” (Mirati Therapeutics, Inc., priority 2022, published 2025).

How the values were obtained:
[1] = Plasma Stability Assay (human plasma); format: in vitro ADME; conditions: both sexes; pooled human plasma, heparin, final conc. 2 μM, 37° C., 0-120 min; read-out: Human Plasma Stability t1/2
Method: This Example illustrates that exemplary compounds of the present invention is cleavage in human plasma.
(§1) Test Compounds and Stock Solutions: Stock Conc. 10 mM; Final Conc. 2 μM
(§2) Test Compound and Control Working Solution Preparation:
• Test compound intermediate solution: 10 μL of compound stock solution (10 mM in dimethyl sulfoxide (DMSO)) were diluted with 90 μL of DMSO (intermediate solution concentration: 1 mM, 100% DMSO) • Control intermediate solution: 10 μL of control stock solution (10 mM in dimethyl sulfoxide (DMSO)) were diluted with 90 μL of DMSO (intermediate solution concentration: 1 mM, 100% DMSO) • Species/Matrix: Human Plasma • No. of Individuals: 3 Male & 3 Female • Anticoagulant Used: Heparin
• The pooled frozen plasma was thawed in a water bath at 37° C. prior to experiment. Plasma was centrifuged at 4000 rpm for 5 min and the clots were removed if any. • Using an Apricot automation workstation, 98 μL/well of blank plasma were added to all 96-well reaction plates. (Blank, T0, T10, T30, T60 and T120) • An Apricot automation workstation was used to add 2 μL/well of working solution (100 μM) to all reaction plates except Blank. (T0, T10, T30, T60 and T120) • All reaction plates containing mixtures of compound and plasma were incubated at 37° C. in water bath. • The reaction plates were incubated at 37° C., and timer was started. • At the end of incubation, added 500 μL of stop solution (200 ng/mL tolbutamide and 200 ng/mL labetalol in ACN) to precipitate protein. Mixed thoroughly. • Each plate was sealed and shaken for 20 minutes. • After shaking, each plate was centrifuged at 4000 rpm and 4° C. for 20 minutes • After centrifugation, an Apricot automation workstation was used to transfer 50 μL supernatant into 100 μL HPLC water. • Each bioanalysis plate was sealed and shaken for 10 minutes prior to LC-MS/MS analysis Data Analysis • The % remaining of test compound after incubation in blood was calculated using following equation:
(§3) [formula] • where PAR is the peak area ratio of analyte versus internal standard (IS) • The appointed incubation time points are TO (0 min), Tn (n=0, 10, 30, 60 and 120 min)

[2] = Whole Blood Stability Assay (mouse whole blood); format: in vitro ADME; conditions: CD-1 mouse blood, EDTA-K2, final conc. 2 μM, 37° C., 0-120 min; for half-life at 2 μM: male, fresh whole blood, read-out: Mouse Whole Blood Stability t1/2
Method: Whole Blood Stability Assay
This Example illustrates that exemplary compounds of the present invention is cleavage in mouse whole blood.
as §1, §2
• Intermediate solution: 5 μL of compound stock solution (10 mM in dimethyl sulfoxide (DMSO)) were diluted with […] of DMSO (intermediate solution concentration: 1 mM, 100% DMSO) • Propantheline bromide (control) intermediate solution: 5 μL of propantheline stock solution (10 mM in ultra-pure water) were diluted with 45 μL of ultra-pure water (intermediate solution concentration: 1 mM) • Working solution 1: 20 μL of test compound intermediate solution (1 mM) were diluted with 180 μL of 45% ACN/H2O (working solution concentration: […], 40.5% ACN, 10% DMSO) • Working solution 2: 20 μL of control intermediate solution (1 mM) were diluted with 180 μL of 45% ACN/H2O (working solution concentration: 100 μM, 40.5% ACN, 10% DMSO) • Species/Matrix: CD-1 Mouse Blood • No. of Individuals: n>3 Male • Anticoagulant Used: EDTA-K2
• The fresh blood was collected on the day of experiment and pre-warmed in a water bath at 37° C. • Using an Apricot automation workstation, 98 μL/well of blank blood were added to all 96-well reaction plates (Blank, T0, T10, T30, T60 and T120). • An Apricot automation workstation was used to add 2 μL/well of working solution (100 μM) to all reaction plates except Blank (T0, T10, T30, T60 and T120). • All reaction plates containing mixtures of compound and blood were incubated at 37° C. in water bath. • The reaction plates were incubated at 37° C., and timer was started. • At the end of incubation, mixed 100 μL water with 100 μL spiked blood samples, then added 800 μL of stop solution (200 ng/mL tolbutamide and 200 ng/mL labetalol in ACN) to precipitate protein. Mixed thoroughly. • Each plate was sealed and shaken for 20 minutes. • After shaking, each plate was centrifuged at 4000 rpm and 4° C. for 20 minutes. • After centrifugation, an Apricot automation workstation was used to transfer 150 μL of supernatant from each reaction plate to its corresponding bioanalysis plate. • Each bioanalysis plate was submitted to LC-MS/MS analysis.
• The % remaining of test compound after incubation in blood was calculated using following equation:
as §3

SMILES	half-life at 2 μM [1]	half-life at 2 μM [2]	Mouse Whole Blood Stability t1/2 [2]
CCCC(=O)Oc1cc(-c2ncc3c(N4C[C@@H]5C[C@H](C4)[C@H](O)C5)nc(OC[C@@]45CCCN4C[C@H](F)C5)nc3c2F)c2c(CC)c(F)ccc2c1 [Example 11, 5-ethyl-6-fluoro-4-(8-fluoro-2-(((2R,7aS)-2-fluorotetrahydro-1H-pyrrolizin-7a(5H)-yl)methoxy)-4-((1R,5R,6R)-6-hydroxy-3-azabicyclo[3.2.1]octan-3-yl)pyrido[4,3-d]pyrimidin-7-yl)naphthalen-2-yl butyrate]	46 min	< 5 min	–
CCOC(=O)Oc1cc(-c2ncc3c(N4C[C@@H]5C[C@H](C4)[C@H](O)C5)nc(OC[C@@]45CCCN4C[C@H](F)C5)nc3c2F)c2c(CC)c(F)ccc2c1 [Example 12, ethyl (5-ethyl-6-fluoro-4-(8-fluoro-2-(((2R,7aS)-2-fluorotetrahydro-1H-pyrrolizin-7a(5H)-yl)methoxy)-4-((1R,5R,6R)-6-hydroxy-3-azabicyclo[3.2.1]octan-3-yl)pyrido[4,3-d]pyrimidin-7-yl)naphthalen-2-yl) carbonate]	26 min	< 5 min	–
CCc1c(F)ccc2cc(OC(=O)C3CCC3)cc(-c3ncc4c(N5C[C@@H]6C[C@H](C5)[C@H](O)C6)nc(OC[C@@]56CCCN5C[C@H](F)C6)nc4c3F)c12 [Example 13, 5-ethyl-6-fluoro-4-(8-fluoro-2-(((2R,7aS)-2-fluorotetrahydro-1H-pyrrolizin-7a(5H)-yl)methoxy)-4-((1R,5R,6R)-6-hydroxy-3-azabicyclo[3.2.1]octan-3-yl)pyrido[4,3-d]pyrimidin-7-yl)naphthalen-2-yl cyclobutanecarboxylate]	16 min	6 min	–
CCc1c(F)ccc2cc(OC(=O)OC(C)C)cc(-c3ncc4c(N5C[C@@H]6C[C@H](C5)[C@H](O)C6)nc(OC[C@@]56CCCN5C[C@H](F)C6)nc4c3F)c12 [Example 15, 5-ethyl-6-fluoro-4-(8-fluoro-2-(((2R,7aS)-2-fluorotetrahydro-1H-pyrrolizin-7a(5H)-yl)methoxy)-4-((1R,5R,6R)-6-hydroxy-3-azabicyclo[3.2.1]octan-3-yl)pyrido[4,3-d]pyrimidin-7-yl)naphthalen-2-yl isopropyl carbonate]	146 min	< 5 min	–
CCc1c(F)ccc2cc(OC(=O)C3CCCC3)cc(-c3ncc4c(N5C[C@@H]6C[C@H](C5)[C@H](O)C6)nc(OC[C@@]56CCCN5C[C@H](F)C6)nc4c3F)c12 [Example 17, 5-ethyl-6-fluoro-4-(8-fluoro-2-(((2R,7aS)-2-fluorotetrahydro-1H-pyrrolizin-7a(5H)-yl)methoxy)-4-((1R,5R,6R)-6-hydroxy-3-azabicyclo[3.2.1]octan-3-yl)pyrido[4,3-d]pyrimidin-7-yl)naphthalen-2-yl cyclopentanecarboxylate]	41 min	–	1 min
CCCCCC(=O)Oc1cc(-c2ncc3c(N4C[C@@H]5C[C@H](C4)[C@H](O)C5)nc(OC[C@@]45CCCN4C[C@H](F)C5)nc3c2F)c2c(CC)c(F)ccc2c1 [Example 18, 5-ethyl-6-fluoro-4-(8-fluoro-2-(((2R,7aS)-2-fluorotetrahydro-1H-pyrrolizin-7a(5H)-yl)methoxy)-4-((1R,5R,6R)-6-hydroxy-3-azabicyclo[3.2.1]octan-3-yl)pyrido[4,3-d]pyrimidin-7-yl)naphthalen-2-yl hexanoate]	44 min	< 5 min	–
CCc1c(F)ccc2cc(OC(=O)OC(C)(C)C)cc(-c3ncc4c(N5C[C@@H]6C[C@H](C5)[C@H](O)C6)nc(OC[C@@]56CCCN5C[C@H](F)C6)nc4c3F)c12 [Example 19, tert-butyl (5-ethyl-6-fluoro-4-(8-fluoro-2-(((2R,7aS)-2-fluorotetrahydro-1H-pyrrolizin-7a(5H)-yl)methoxy)-4-((1R,5R,6R)-6-hydroxy-3-azabicyclo[3.2.1]octan-3-yl)pyrido[4,3-d]pyrimidin-7-yl)naphthalen-2-yl) carbonate]	> 289 min	3 min	–

More lines, now with the values ahead:

half-life at 2 μM [1]	half-life at 2 μM [2]	Mouse Whole Blood Stability t1/2 [2]	SMILES
> 289 min	> 289 min	–	CCc1c(F)ccc2cc(OCOC(=O)N(C)C)cc(-c3ncc4c(N5C[C@@H]6C[C@H](C5)[C@H](O)C6)nc(OC[C@@]56CCCN5C[C@H](F)C6)nc4c3F)c12 [Example 20, ((5-ethyl-6-fluoro-4-(8-fluoro-2-(((2R,7aS)-2-fluorotetrahydro-1H-pyrrolizin-7a(5H)-yl)methoxy)-4-((1R,5R,6R)-6-hydroxy-3-azabicyclo[3.2.1]octan-3-yl)pyrido[4,3-d]pyrimidin-7-yl)naphthalen-2-yl)oxy)methyl dimethylcarbamate]
41 min	–	1 min	CCc1c(F)ccc2cc(OC(=O)C3CCCCC3)cc(-c3ncc4c(N5C[C@@H]6C[C@H](C5)[C@H](O)C6)nc(OC[C@@]56CCCN5C[C@H](F)C6)nc4c3F)c12 [Example 21, 5-ethyl-6-fluoro-4-(8-fluoro-2-(((2R,7aS)-2-fluorotetrahydro-1H-pyrrolizin-7a(5H)-yl)methoxy)-4-((1R,5R,6R)-6-hydroxy-3-azabicyclo[3.2.1]octan-3-yl)pyrido[4,3-d]pyrimidin-7-yl)naphthalen-2-yl cyclohexanecarboxylate]
> 289 min	> 289 min	–	CCc1c(F)ccc2cc(OC(C)OC(=O)N(C)C)cc(-c3ncc4c(N5C[C@@H]6C[C@H](C5)[C@H](O)C6)nc(OC[C@@]56CCCN5C[C@H](F)C6)nc4c3F)c12 (stereo partly drawn) [Example 22, 1-((5-ethyl-6-fluoro-4-(8-fluoro-2-(((2R,7aS)-2-fluorotetrahydro-1H-pyrrolizin-7a(5H)-yl)methoxy)-4-((1R,5R,6R)-6-hydroxy-3-azabicyclo[3.2.1]octan-3-yl)pyrido[4,3-d]pyrimidin-7-yl)naphthalen-2-yl)oxy)ethyl dimethylcarbamate]
65 min	–	1 min	CCCCCCCC(=O)Oc1cc(-c2ncc3c(N4C[C@@H]5C[C@H](C4)[C@H](O)C5)nc(OC[C@@]45CCCN4C[C@H](F)C5)nc3c2F)c2c(CC)c(F)ccc2c1 [Example 24, 5-ethyl-6-fluoro-4-(8-fluoro-2-(((2R,7aS)-2-fluorotetrahydro-1H-pyrrolizin-7a(5H)-yl)methoxy)-4-((1R,5R,6R)-6-hydroxy-3-azabicyclo[3.2.1]octan-3-yl)pyrido[4,3-d]pyrimidin-7-yl)naphthalen-2-yl octanoate]
77 min	–	1 min	CCCCCCCCCC(=O)Oc1cc(-c2ncc3c(N4C[C@@H]5C[C@H](C4)[C@H](O)C5)nc(OC[C@@]45CCCN4C[C@H](F)C5)nc3c2F)c2c(CC)c(F)ccc2c1 [Example 25, 5-ethyl-6-fluoro-4-(8-fluoro-2-(((2R,7aS)-2-fluorotetrahydro-1H-pyrrolizin-7a(5H)-yl)methoxy)-4-((1R,5R,6R)-6-hydroxy-3-azabicyclo[3.2.1]octan-3-yl)pyrido[4,3-d]pyrimidin-7-yl)naphthalen-2-yl decanoate]
